In data set [1] the test system is male C57 mice. In words: Forced swim test. The note with it: intraperitoneal injection, test 0.5 h after dosing, motionless time in last 4 min. It is filed as in vivo. How it is done:
Drug: the compound of the present disclosure was first uniformly mixed with 5% DMSO and 5% Solutol® HS 15. hysiological saline was then added to make up 90% of the final volume. The mixture was prepared at an appropriate concentration immediately before use.
Animal: male C57 mice, about 22 g. The animals were randomly divided into a blank control group and test drug groups, 8 animals per group, and mice in each group were administered either the vehicle or the test compound via intraperitoneal injection.
Experimental steps: the mice were subjected to forced swim test 0.5 h after dosing. The water level in the forced swim device was 45 cm, and the water temperature was 25° C. The mice were placed in an experimental room to adapt to the environment for 1 h before the experiment began. When the experiment began, the mice were placed in the device for 6 min, and the whole process was recorded by a camera. Only the motionless time of the mice in the last 4 min was counted when data were analyzed.

The target in data set [2] is human SERT (Homo sapiens, UniProt P31645). The data set can be described thus: Inhibitory activity assay against 5-HT transporter (neurotransmitter transporter uptake assay kit). The note with it: HEK-293 cells overexpressing human SERT; read-out: 5-HTT (IC50). Format: cell-based. On the procedure: In HEK-293 cells overexpressing human SERT, the transporter inhibitory effect of the test compound on human SERT was assayed using a Neurotransmitter transporter uptake assay kit (Molecular devices).

Data set [3] in a line: Human liver microsome assay (metabolic stability). Format: in vitro ADME. The note with it: for half-life at 1 μM / CLint scaled at 1 μM: pH 7.4. On the procedure: Control and reagent: NADPH, magnesium chloride, testosterone, phosphate buffer, etc. were supplied by Dalian Meilun Biotech Co., Ltd., etc.
Liver microsome: human liver microsomes were supplied by Corning.
Experimental step: the liver microsome incubations were performed in 96-well plates, each incubation system having a volume of 200 μL, in a medium of 0.1 M phosphate buffer (pH 7.4), including liver microsomes at a final concentration of 0.2 mg/mL, 1 μM of the test drug, 3.0 mM MgCl2, 0.01% DMSO, 0.5% acetonitrile, and 2.0 mM NADPH. The incubation system described above without NADPH was pre-incubated at 37° C. for 5 min using a rotary water bath constant temperature oscillator. NADPH was added to initiate the reaction. At 0, 5, 15, 30, and 60 min, 20 μL of the sample was taken out from the incubation system after mixing well and added to 200 μL of acetonitrile containing an internal standard to terminate the reaction. Under the same conditions, 1 μM testosterone was used as a positive control to assess the reliability of the reaction system. For the negative control, phosphate buffer was used instead of NADPH, and all other incubation conditions remained the same. At 60 min, 20 μL of the sample was taken out after mixing well and added to 200 μL of termination solution containing an internal standard to terminate the reaction.
Sample analysis: After treatments such as precipitated protein extraction with an organic solvent, the incubated sample was analyzed using liquid chromatography-tandem mass spectrometry (LC-MS/MS). The concentrations of the test drug or the positive control drug in the sample were semi-quantified. The concentration in the sample was expressed using the ratio of the analyte peak area to the internal standard peak area.
Data processing and analysis: A standard curve of the In residual rate of the drug in the incubation system with respect to the incubation time was plotted by using Excel software, linear regression was performed to obtain a slope k, and the half-life T1/2 (min) and the intrinsic clearance CLint (mL/min/kg) were calculated according to the following formula: […]
(In general: Microsomes from liver hold many membrane-bound enzymes, among them those of drug oxidation.)

Data set [4] is described as follows: In vivo metabolism (pharmacokinetic) experiment in mice. Further details: species or system male ICR mice. The note with it: male, ICR, mouse, po, 10 mg/kg, male ICR mice; for AUC(0-inf) / Cmax / half-life: oral 10 mg/kg, plasma; for AUC(0-inf): read-out: AUC0-inf(po); for Cmax: read-out: Cmax (po); for half-life: read-out: T1/2 (po) (converted); for bioavailability: oral 10 mg/kg vs iv 2.5 mg/kg, read-out: F (%). How it is done:
Animal: male ICR mice. The animals were randomly assigned to treatment groups and fasted for 12 h prior to dosing.
Drug: the compound of the present disclosure was dissolved in a vehicle (5% DMSO+5% Solutol HS15+90% saline). For intravenous (iv) administration, the dose was 2.5 mg/kg with a dosing volume of 5 mL/kg; for oral (po) administration, the dose was 10 mg/kg with a dosing volume of 10 mL/kg body weight. Sample collection and bioanalysis: blood was collected from the orbit of the mice and added into EP tubes containing heparin sodium at 0.083, 0.25, 0.5, 1, 2, 4, 6, and 8 h (n=3 for each time point). Immediately after blood collection, the mice were euthanized by cervical dislocation, and mouse brains were collected at the corresponding time points. All samples were promptly collected, snap-frozen, and stored at −70° C. for later use. Plasma samples were obtained by centrifugation of whole blood. 10 μL of plasma was mixed with 190 μL of internal standard solution (20 ng/ml in acetonitrile containing 0.1% formic acid). After mixing, the samples were centrifuged at 13000 rpm for 10 min, and 120 μL of the supernatant was separately collected. Depending on the sensitivity of the compound, 0.5-10 μL of the supernatant was taken for drug analysis using the appropriate liquid chromatography-tandem mass spectrometry (LC-MS/MS). Each analyte was calibrated and identified using standards. According to brain tissue: the extract (50% acetonitrile/water) at a ratio of 1 g:8 mL was homogenized for 2 min using five 3 mm magnetic beads in an OMNI Bead Ruptor 24 Elite homogenizer at 3.2 m/s and centrifuged at 4° C. and 3000 g for 3 min. 50 μL of the supernatant was mixed with 200 μL of internal standard solution (20 ng/mL in 80% acetonitrile/water). After mixing, the samples were centrifuged at 13,000 rpm for 10 min, and 120 μL of the supernatant was separately collected. Depending on the sensitivity of the compound, 0.5-10 μL of the supernatant was taken for drug analysis using the appropriate LC-MS/MS method. Each analyte was calibrated and identified using standards.
Data analysis: drug concentrations below the lower limit of quantification (LLOQ) were considered zero. Pharmacokinetic parameters were analyzed using PK Solver with a non-compartmental, bolus injection or extravascular input analysis models. Data points below the LLOQ were excluded to improve the efficacy of t1/2 calculation.

In data set [5] the target is human DAT (Homo sapiens, UniProt Q01959). In words: DAT transporter inhibitory activity test (neurotransmitter transporter uptake assay kit). It is filed as cell-based. How it is done: Transporter inhibition of human DAT and NET expressed in HEK-293 cells was assessed using a neurotransmitter transporter uptake assay kit. The assay was performed as described in the kit instructions, using centanafadine as a positive control. The specific procedures were as follows:
DAT stably transfected culture: The DAT-HEK cell line was cultured in DMEM medium containing 10% fetal bovine serum and 0.2 mg/mL hygromycin B at 37° C. with 5% carbon dioxide.
DAT stably transfected cell passage: the old medium was removed, and the cells were washed once with PBS; 1 mL of TrypLE™ Express solution was then added, and the cells were incubated at 37° C. for about 2 min. When the cells were detached from the bottom of the dish, about 5 mL of complete medium pre-heated at 37° C. was added. The cell suspension was gently pipetted to separate the aggregated cells. The cell suspension was transferred to a sterile centrifuge tube and centrifuged at 1000 rpm for 5 min. In order to maintain the physiological activity of the cells, the experimental cell confluence was controlled at about 80%.
• a) After overnight transfection of NET cells, the cells were digested with trypsin, resuspended with DMEM+10% Dialyzed FBS medium, seeded into a 384-well plate at 20000 cells/well, and incubated overnight. […] After centrifuging, the plate was incubated at 37° C. for 30 min. • e) A detection reagent was prepared using 1×HBSS, and 16 μL of the detection reagent was added to each well. […] Curve fitting and IC50 calculation were performed using GraphPad Prism software nonlinear regression method.

The mark [6] stands for this setting: human liver microsomes 0.2 mg/mL, 1 μM test drug, NADPH, 37° C., read-out: Half-life (t1/2, min).
[7] abbreviates: human liver microsomes 0.2 mg/mL, 1 μM test drug, NADPH, 37° C., read-out: Intrinsic clearance (Clint, mL/min/kg).

pIC50: −log10 of the molar value. Read-outs that look alike come from different tables or passages of the source.

We go through 16 compounds from patent publication US20260174739A1 (priority 2022, published 2026).

human DAT, sequence (Q01959 whole entry): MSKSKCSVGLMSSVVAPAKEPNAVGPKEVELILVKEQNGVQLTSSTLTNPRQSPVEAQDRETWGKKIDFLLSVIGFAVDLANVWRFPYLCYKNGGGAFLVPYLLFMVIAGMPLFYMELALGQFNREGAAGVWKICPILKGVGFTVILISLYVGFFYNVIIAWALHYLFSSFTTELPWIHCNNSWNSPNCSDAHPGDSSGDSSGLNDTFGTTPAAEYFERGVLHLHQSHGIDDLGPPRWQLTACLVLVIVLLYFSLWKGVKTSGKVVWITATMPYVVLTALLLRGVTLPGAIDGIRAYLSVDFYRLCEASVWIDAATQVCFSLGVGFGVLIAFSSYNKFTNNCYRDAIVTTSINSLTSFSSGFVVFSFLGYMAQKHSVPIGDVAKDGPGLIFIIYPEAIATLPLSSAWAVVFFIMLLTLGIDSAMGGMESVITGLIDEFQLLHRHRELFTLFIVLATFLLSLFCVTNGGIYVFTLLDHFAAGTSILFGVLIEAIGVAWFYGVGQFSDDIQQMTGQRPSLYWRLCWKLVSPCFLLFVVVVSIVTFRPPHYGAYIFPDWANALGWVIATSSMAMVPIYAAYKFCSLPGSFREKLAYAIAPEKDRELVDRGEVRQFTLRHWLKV
human SERT, sequence (P31645 whole entry): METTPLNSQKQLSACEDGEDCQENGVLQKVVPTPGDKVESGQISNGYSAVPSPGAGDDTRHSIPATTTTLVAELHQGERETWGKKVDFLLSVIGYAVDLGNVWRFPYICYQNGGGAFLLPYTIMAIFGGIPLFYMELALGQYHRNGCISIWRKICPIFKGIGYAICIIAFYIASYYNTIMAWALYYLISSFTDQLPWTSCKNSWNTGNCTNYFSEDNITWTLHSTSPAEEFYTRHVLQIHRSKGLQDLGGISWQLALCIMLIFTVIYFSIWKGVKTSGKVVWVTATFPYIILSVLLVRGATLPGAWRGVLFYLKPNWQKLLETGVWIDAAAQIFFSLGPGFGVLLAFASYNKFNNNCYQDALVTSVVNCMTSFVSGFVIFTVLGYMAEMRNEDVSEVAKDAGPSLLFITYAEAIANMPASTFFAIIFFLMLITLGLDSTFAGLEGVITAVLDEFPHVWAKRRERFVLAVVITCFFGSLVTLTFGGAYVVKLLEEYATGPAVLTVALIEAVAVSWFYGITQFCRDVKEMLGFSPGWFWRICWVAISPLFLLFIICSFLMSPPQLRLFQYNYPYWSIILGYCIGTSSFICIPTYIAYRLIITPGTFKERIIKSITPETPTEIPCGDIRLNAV

With `Nc1nc2c(s1)CC(N)(c1cccc(OC(F)F)c1)CC2` (racemic) [rac-A256, 6-(3-(difluoromethoxy)phenyl)-4,5,6,7-tetrahydrobenzo[d]thiazole-2,6-diamine], the “Effective dose” value in data set [1] was determined as 5 mg/kg.
In the case of `Nc1nc2c(s1)CC(N)(c1cccc(OCC3CC3)c1)CC2` (racemic) [rac-A259, 6-(3-(cyclopropylmethoxy)phenyl)-4,5,6,7-tetrahydrobenzo[d]thiazole-2,6-diamine], the “Effective dose” value in data set [1] is given as 5 mg/kg.
Still for that read-out and setting: to `Nc1nc2c(s1)CCC(N)(c1ccccc1)C2` (racemic) [rac-A132, 5-phenyl-4,5,6,7-tetrahydrobenzo[d]thiazole-2,5-diamine] belongs 3 mg/kg.
The pIC50 is the IC50 on a negative log10 scale, so that one unit is a factor of ten. As to `Nc1nc2c(s1)CC(N)(c1ccccc1F)CC2` (racemic) [rac-A9, 6-(2-fluorophenyl)-4,5,6,7-tetrahydrobenzothiazole-2,6-diamine], the pIC50 in data set [2] is 6.10. Moreover, in data set [1], the “Effective dose” value is listed as 1 mg/kg.
Consider `c1ccc(C2(N3CCCCC3)CCc3[nH]ncc3C2)cc1` (racemic) [rac-A70, 5-phenyl-5-(piperidin-1-yl)-4,5,6,7-tetrahydro-1H-indazole], for which, in data set [1], the “Effective dose” value was 1 mg/kg. Further, the half-life at 1 μM in data set [3] (setting [6]) was greater than 120 min.
The term Cmax denotes the peak of the concentration-time curve. With `Nc1nc2c(s1)CCCC2(N)c1ccccc1` (racemic) [rac-A35, 4-phenyl-4,5,6,7-tetrahydrobenzothiazole-2,4-diamine], in data set [4], the AUC(0-inf) turned out to be 5110 ng·h/mL, the highest concentration (Cmax) was 1140 ng/mL and the half-life was 160 min. In addition, in data set [1], the “Effective dose” value is listed as 3 mg/kg.
With `c1ccc(C2(N3CCCC3)CCc3oncc3C2)cc1` (racemic) [rac-A55, 5-phenyl-5-(pyrrolidin-1-yl)-4,5,6,7-tetrahydrobenzo[d]isoxazole], the pIC50 is 5.14 in data set [2] and 5.35 in data set [5] (DAT stably transfected HEK cells, read-out: DAT (IC50)). In data set [3] (setting [6]), the half-life at 1 μM amounted to 62 min. In data set [3] (setting [7]), the CLint scaled at 1 μM stood at 65.8 mL/min/kg.
`CNC1(c2cccc(OC(F)F)c2)CCc2nc(N)sc2C1` (racemic) [rac-A282, 6-(3-(difluoromethoxy)phenyl)-N6-methyl-4,5,6,7-tetrahydrobenzo[d]thiazole-2,6-diamine]: the “Effective dose” value in data set [1] was 5 mg/kg.
Regarding `Nc1nc2c(s1)CC(N)(c1ccccc1)CC2` (racemic) [rac-A1, 6-phenyl-4,5,6,7-tetrahydrobenzothiazole-2,6-diamine], in data set [4], the bioavailability was determined as 132%, the AUC(0-inf) was 2830 ng·h/mL, the Cmax worked out at 413 ng/mL and the half-life was 281 min. In addition, in data set [1], the “Effective dose” value stood at 1 mg/kg.
Turning to `c1ccc(C2(N3CCCC3)CCc3[nH]ncc3C2)cc1` (racemic) [rac-A12, 5-phenyl-5-(pyrrolidin-1-yl)-4,5,6,7-tetrahydro-1H-indazole], in data set [1], the “Effective dose” value is listed as 1 mg/kg. Further, in data set [3] (human, microsomes), the CLint scaled at 1 μM came to 12.4 mL/min/kg and the half-life at 1 μM came to 327 min.
As to `C[C@]12CC[C@H]3[C@@H](CCC4=CC(=O)CC[C@@]43C)[C@@H]1CC[C@@H]2O` [Testosterone, testosterone, reference compound], in data set [3] (human liver microsomes 0.2 mg/mL, 1 μM test drug, NADPH, 37° C.), the “Half-life (t1/2, min)” value was 15.3 min. The CLint scaled at 1 μM in data set [3] (setting [7]) came to 265 mL/min/kg.
Consider `Nc1nc2c(s1)CC(N)(c1cccc(OCC(F)(F)F)c1)CC2` (racemic) [rac-A255, 6-(3-(2,2,2-trifluoroethoxy)phenyl)-4,5,6,7-tetrahydrobenzo[d]thiazole-2,6-diamine], for which the “Effective dose” value in data set [1] was 5 mg/kg.
As for `c1ccc(C2(N3CCCCC3)CCc3ncsc3C2)cc1` (racemic) [rac-A71, 6-phenyl-6-(piperidin-1-yl)-4,5,6,7-tetrahydrobenzothiazole], in data set [3] (setting [6]), the half-life at 1 μM was determined as 210 min. In addition, in data set [3] (setting [7]), the CLint scaled at 1 μM turned out to be 13.8 mL/min/kg.
The matching figures for `NC1(c2ccccc2)CCCc2scnc21` (racemic) [rac-A32, 4-phenyl-4,5,6,7-tetrahydrobenzothiazol-4-amine]: 196 min and 20.7 mL/min/kg.
Regarding `CCCNC1(c2ccccc2)CCc2nc(N)sc2C1` (racemic) [rac-A7, 6-phenyl-N^6-propyl-4,5,6,7-tetrahydrobenzothiazole-2,6-diamine], in data set [4], the bioavailability was found to be 55%, the AUC(0-inf) was 768 ng·h/mL, the Cmax was 208 ng/mL and the half-life is 103 min. Also, the negative logarithm of the IC50 (pIC50) in data set [5] was 5.35. Further, the half-life at 1 μM in data set [3] (setting [6]) is greater than 120 min.
As for `CCOc1cccc(C2(N)CCc3nc(N)sc3C2)c1` (racemic) [rac-A228, 6-(3-ethoxyphenyl)-4,5,6,7-tetrahydrobenzo[d]thiazole-2,6-diamine], in data set [1], the “Effective dose” value amounted to 5 mg/kg.
